In patent US12054480B2, “Compounds for treating cannabinoid toxicity and acute cannabinoid overdose” (MAKScientific, LLC, priority 2020, dated 2024):

Key:
male CD-1 mice [1] = assay: Reversal of CB1 SPC agonist induced neurotoxicity; type: in vivo, mouse; conditions: FIGS. 2A-2B; induced by suprapharmacological doses of CB1 SPC agonist AM2201; i.v., 30 min observation
male CD-1 mice [2] = assay: Observation chamber test - CB1 antagonist mediated side effects; type: in vivo, mouse; conditions: FIG. 1; i.v., 60-minute observation; compared with rimonabant (i.p.)
Experimental: Observation chambers were used to score (count/duration) individual mouse intrinsic behavior. Male CD-1 mice (n=8) were placed in the chambers for 30 minutes to acclimate to the environment. Subjects were dosed i.v with a compound of Formula I-XI along with vehicle control groups and behavior are recorded over a 60-minute period and the results were analyzed. For statistical analysis, measurements were sampled in 5 min bins at the 5-10, 15-20, 25-30, 35-40, 45-50 and 55-60 min time intervals. The scratching response/frequency is defined based on well-established observations. Data was compared with that of rimonabant (i.p). The vehicle control group (vehicle (i.v.)) were included accordingly.

[3] = cited from earlier work

SMILES: CCOC(=O)c1ccc(-c2c(CC)c(C(=O)NN3CCCCC3)nn2-c2ccc(Cl)cc2Cl)cc1 [Compound 1, Ethyl 4-(1-(2,4-Dichlorophenyl)-4-Ethyl-3-(Piperidin-1-Ylcarbamoyl)-1H-Pyrazol-5-Yl)Benzoate]
- neurotoxic effects: convulsions (male CD-1 mice [1]): blocks
- neurotoxic effects: tremors (male CD-1 mice [1]): blocks
- side effects (scratching episodes) (male CD-1 mice [2]): lesser side effects (scratching episodes) as compared to rimonabant

SMILES: CCCCCc1cc(O)c2c(c1)OC(C)(C)[C@@H]1CCC(C)=C[C@@H]21 [THC]
- onset ([3]; humans): 30 to 60 min
- time of peak effects ([3]; humans): 2 to 4 h
- apparent plasma elimination half-life ([3]; in some cases): > 96 h
